Assay results as given in publication PMC9865188 (Pharmaceutics, 2023).
Like-named read-outs stand apart in the source and are kept apart here. Blank lines part the entries; values can stand above or below the molecule they belong to.

Experiments:
[1] = test system: Caco-2 cells
[2] = test system: Caco-2 cells; remark: listed apart in the source
[3] = test system: MDCKII-MDR1 cells; assay: Monolayer integrity: lucifer yellow permeability, MDCKII-MDR1 (series 2); conditions: MDCKII-MDR1, series 2, 100 µM lucifer yellow
Experimental: For (2) and (3), passive permeability was assessed by supplementation of 100 µM lucifer yellow to all donor solutions.
Papp was calculated by dividing the flux with the measured donor concentration.

[4] = cited from earlier work

3H-mannitol permeability [1]: 0.31–1.4 × 10^−6 cm/s
Molecule: OC[C@@H](O)[C@@H](O)[C@H](O)[C@H](O)CO [^3H-mannitol]

Molecule: lucifer yellow
Lucifer yellow permeability [2]: 0.15–1.1 × 10^−6 cm/s | Lucifer yellow permeability [3]: 0.39–1.2 × 10^−6 cm/s

Molecule: polysorbate 20
critical micelle concentration (CMC) ([4]; in water, temperatures of 22–40 °C): 11 to 57 µM | critical micelle concentration (CMC) ([4]; room temperature): 11 to 42 µM
